“And” between values parts separate entries of the source, which are not always exact repeats. Identical values can stand only once. Inconclusive results and toxic doses are left out. Rule for the calls: active = survival T/C of 150% or more; inactive = T/C below 125% in these data.
System: P388 leukemia ip, CD2F1 mice, survival T/C
Assay: NCI In Vivo Anticancer Drug Screen. Data for tumor model P388 Leukemia (intraperitoneal) in CD2F1 (CDF1) mice
Settings: endpoint: median survival time, higher = longer survival
How it was run: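 Mice carrying the transplanted tumor received test compound or vehicle. Survival was recorded in each group, and the value is the treated-group measurement divided by that of the vehicle-treated control group.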

[1] = dose: 12.5 mg/kg/injection, schedule: Q01DX009 (ip), vehicle: Klucel (hydroxypropylcellulose) (HPC)
[2] = dose: 25.0 mg/kg/injection, schedule: Q01DX009 (ip), vehicle: Klucel (hydroxypropylcellulose) (HPC)
[3] = dose: 50.0 mg/kg/injection, schedule: Q01DX009 (ip), vehicle: Klucel (hydroxypropylcellulose) (HPC)
[4] = dose: 60.0 mg/kg/injection, schedule: Q01DX005 (ip), vehicle: saline with Tween-80
[5] = dose: 120.0 mg/kg/injection, schedule: Q01DX005 (ip), vehicle: saline with Tween-80
[6] = dose: 50.0 mg/kg/injection, schedule: Q01DX005 (ip), vehicle: Klucel (hydroxypropylcellulose) (HPC)
[7] = dose: 100.0 mg/kg/injection, schedule: Q01DX005 (ip), vehicle: Klucel (hydroxypropylcellulose) (HPC)
[8] = dose: 60.0 mg/kg/injection, schedule: Q01DX005 (ip), vehicle: Klucel (hydroxypropylcellulose) (HPC)
[9] = dose: 120.0 mg/kg/injection, schedule: Q01DX005 (ip), vehicle: Klucel (hydroxypropylcellulose) (HPC)
[10] = dose: 240.0 mg/kg/injection, schedule: Q01DX005 (ip), vehicle: Klucel (hydroxypropylcellulose) (HPC)
[11] = dose: 50.0 mg/kg/injection, schedule: Q01DX009 (ip), vehicle: saline with Tween-80
[12] = dose: 100.0 mg/kg/injection, schedule: Q01DX009 (ip), vehicle: saline with Tween-80
[13] = dose: 200.0 mg/kg/injection, schedule: Q01DX009 (ip), vehicle: saline with Tween-80

Measured: T/C

CCCCCCCS(=O)(=O)OCCCCOS(=O)(=O)CCCCCCC
inactive: dose: 45.0 mg/kg/injection, schedule: Q01DX005 (ip), vehicle: acetone 99 % of control | dose: 90.0 mg/kg/injection, schedule: Q01DX005 (ip), vehicle: acetone 100 % of control | dose: 180.0 mg/kg/injection, schedule: Q01DX005 (ip), vehicle: acetone 99 % of control

COc1cc(Br)c(CC(NC=O)c2ccc(OC)c(OC)c2OC)cc1OC (stereo not drawn)
inactive: [4] 107 % of control | [5] 100 % of control | dose: 240.0 mg/kg/injection, schedule: Q01DX005 (ip), vehicle: saline with Tween-80 100 % of control

Cc1cc(N(CCCl)CCCl)ccc1CN1CCCN(Cc2ccc(N(CCCl)CCCl)cc2C)C1c1ccccc1O
inactive: dose: 12.5 mg/kg/injection, schedule: Q01DX009 (ip), vehicle: saline with Tween-80 123 % of control

O=Cc1ccccc1
inactive: [1] 98 % of control | [2] 99 % of control and 100 % of control and 115 % of control | [3] 100 % of control and 103 % of control and 107 % of control | dose: 100.0 mg/kg/injection, schedule: Q01DX009 (ip), vehicle: Klucel (hydroxypropylcellulose) (HPC) 100 % of control and 97 % of control and 98 % of control | dose: 200.0 mg/kg/injection, schedule: Q01DX009 (ip), vehicle: Klucel (hydroxypropylcellulose) (HPC) 100 % of control and 109 % of control and 95 % of control | dose: 0.25 % in 0.5 ml injection vol, schedule: Q01DX009 (ip), vehicle: water 99 % of control | dose: 400.0 mg/kg/injection, schedule: Q01DX009 (ip), vehicle: Klucel (hydroxypropylcellulose) (HPC) 93 % of control and 98 % of control | dose: 0.5 % in 0.5 ml injection vol, schedule: Q01DX009 (ip), vehicle: water 100 % of control | dose: 1.0 % in 0.5 ml injection vol, schedule: Q01DX009 (ip), vehicle: water 100 % of control

CCCCCCOc1cc2c(cc1C(C)c1ccc(OC)cc1)OCO2 (stereo not drawn)
inactive: [6] 103 % of control | [7] 109 % of control | dose: 200.0 mg/kg/injection, schedule: Q01DX005 (ip), vehicle: Klucel (hydroxypropylcellulose) (HPC) 109 % of control

CCCCN(CCCC)CCCCCCCC(O)c1cc2ccccc2c2ccccc12 (stereo not drawn)
inactive: dose: 50.0 mg/kg/injection, schedule: Q01DX005 (ip), vehicle: saline + Tween-80 + alcohol 113 % of control | dose: 100.0 mg/kg/injection, schedule: Q01DX005 (ip), vehicle: saline + Tween-80 + alcohol 110 % of control

O=C1CSC(c2ccccc2Cl)N1c1n[nH]c(=S)s1 (stereo not drawn)
inactive: dose: 100.0 mg/kg/injection, schedule: Q04DX002 (ip), vehicle: Klucel (hydroxypropylcellulose) (HPC) 98 % of control | dose: 200.0 mg/kg/injection, schedule: Q04DX002 (ip), vehicle: Klucel (hydroxypropylcellulose) (HPC) 100 % of control | dose: 400.0 mg/kg/injection, schedule: Q04DX002 (ip), vehicle: Klucel (hydroxypropylcellulose) (HPC) 97 % of control

C=C1ON(C)C(c2ccccc2)C1S(=O)(=O)c1ccccc1 (stereo not drawn)
inactive: [8] 110 % of control | [9] 105 % of control | [10] 98 % of control

O=C1OC2CS(=O)CC2O1 (stereo not drawn)
inactive: [11] 104 % of control | dose: 50.0 mg/kg/injection, schedule: Q01DX009 (ip), vehicle: saline 102 % of control | [12] 101 % of control | dose: 100.0 mg/kg/injection, schedule: Q01DX009 (ip), vehicle: saline 101 % of control | [13] 95 % of control | dose: 200.0 mg/kg/injection, schedule: Q01DX009 (ip), vehicle: saline 99 % of control

CCOC1=N[C@H](C)[C@H](C)N1
inactive: dose: 50.0 mg/kg/injection, schedule: Q01DX005 (ip), vehicle: saline 100 % of control | dose: 100.0 mg/kg/injection, schedule: Q01DX005 (ip), vehicle: saline 103 % of control

Cc1ccc2oc3c(=O)c4ccccc4c(=O)c=3oc2c1
inactive: dose: 100.0 mg/kg/injection, schedule: Q04DX003 (ip), vehicle: saline with Tween-80 90 % of control | dose: 200.0 mg/kg/injection, schedule: Q04DX003 (ip), vehicle: saline with Tween-80 89 % of control | dose: 400.0 mg/kg/injection, schedule: Q04DX003 (ip), vehicle: saline with Tween-80 90 % of control

O=C(NN=C1c2ccccc2-c2ccccc21)C(F)(F)F
inactive: dose: 50.0 mg/kg/injection, schedule: Q01DX005 (ip), vehicle: Klucel + Tween-80 100 % of control | dose: 100.0 mg/kg/injection, schedule: Q01DX005 (ip), vehicle: Klucel + Tween-80 100 % of control | dose: 200.0 mg/kg/injection, schedule: Q01DX005 (ip), vehicle: Klucel + Tween-80 100 % of control

Cc1c2c(cn1C)NC(=O)CN=C2c1ccccc1
inactive: [11] 105 % of control | [12] 116 % of control | [13] 99 % of control

OC1(O)CCC1(O)OCCBr (stereo not drawn)
inactive: [4] 92 % of control | [5] 108 % of control

Clc1ccccc1CN1COc2c(cc(Cl)c3cccnc23)C1
inactive: dose: 100.0 mg/kg/injection, schedule: Q04DX003 (ip), vehicle: Klucel (hydroxypropylcellulose) (HPC) 95 % of control | dose: 200.0 mg/kg/injection, schedule: Q04DX003 (ip), vehicle: Klucel (hydroxypropylcellulose) (HPC) 95 % of control | dose: 400.0 mg/kg/injection, schedule: Q04DX003 (ip), vehicle: Klucel (hydroxypropylcellulose) (HPC) 95 % of control

O=C1C2CCCN2C(=S)N1c1ccccc1 (stereo not drawn)
inactive: [8] 96 % of control | [9] 91 % of control | [10] 94 % of control

Nc1ccc2nc(-c3ccccc3)c(=O)oc2c1
inactive: [4] 97 % of control | [5] 98 % of control

CCC12C=CCN3CC[C@@]4(c5cc([C@@]6(C(=O)OC)CC7CN(CCc8c6[nH]c6ccccc86)C[C@](O)(CC)C7)c(OC)cc5N(C)[C@H]4[C@]4(OCOC4=O)[C@@H]1O)C32 (stereo partly drawn)
inactive: dose: 0.5 mg/kg/injection, schedule: Q01DX005 (ip), vehicle: saline 102 % of control | dose: 1.0 mg/kg/injection, schedule: Q01DX005 (ip), vehicle: saline 91 % of control | dose: 2.0 mg/kg/injection, schedule: Q01DX005 (ip), vehicle: saline 92 % of control

NCCO/C=C/C(N)C(=O)O (stereo not drawn)
inactive: dose: 31.2 mg/kg/injection, schedule: Q01DX009 (ip), vehicle: saline 99 % of control | dose: 62.5 mg/kg/injection, schedule: Q01DX009 (ip), vehicle: saline 99 % of control | dose: 125.0 mg/kg/injection, schedule: Q01DX009 (ip), vehicle: saline 99 % of control

CC(=O)N1C(=O)CC23c4ccccc4C(=O)N2CCCN13 (stereo not drawn)
inactive: dose: 50.0 mg/kg/injection, schedule: Q01DX005 (ip), vehicle: saline with Tween-80 99 % of control | dose: 100.0 mg/kg/injection, schedule: Q01DX005 (ip), vehicle: saline with Tween-80 106 % of control | dose: 200.0 mg/kg/injection, schedule: Q01DX005 (ip), vehicle: saline with Tween-80 99 % of control

O=C1SC(Nc2cccc([N+](=O)[O-])c2)/C(=N\N=C2/C(Nc3cccc([N+](=O)[O-])c3)SC(=O)N2Cc2ccccc2)N1Cc1ccccc1 (stereo not drawn)
inactive: [6] 92 % of control | [7] 87 % of control

CCOC(=O)C1(Br)CCCCC1
inactive: [11] 109 % of control | [12] 111 % of control | [13] 103 % of control

Source: PubChem BioAssay AID330 (DTP/NCI, 2004)
